Assay results taken from article PMC10098686, “Bright Molecular Strain Probe Templates for Reporting Protein–Protein Interactions” (Sensors (Basel, Switzerland), 2023).

Biological target: T1, Renilla luciferase 8 (RLuc8) (Renilla reniformis, UniProt P27652, A55T/C124A/S130A/K136R/A143M/M185V/M253L/S287L)
T1 construct: RLuc8 in pcDNA3.1(+), stably expressed in MDA-MB231 cells
T1 sequence (P27652 1-311 A55T/C124A/S130A/K136R/A143M/M185V/M253L/S287L): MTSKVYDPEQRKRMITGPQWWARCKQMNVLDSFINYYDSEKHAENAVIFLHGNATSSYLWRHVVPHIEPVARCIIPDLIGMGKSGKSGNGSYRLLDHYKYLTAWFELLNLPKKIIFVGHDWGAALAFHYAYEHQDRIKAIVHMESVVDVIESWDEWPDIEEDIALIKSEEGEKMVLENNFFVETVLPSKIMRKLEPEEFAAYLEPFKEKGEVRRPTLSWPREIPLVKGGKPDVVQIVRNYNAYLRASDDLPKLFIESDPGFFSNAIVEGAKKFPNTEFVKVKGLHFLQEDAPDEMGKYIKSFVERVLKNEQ
Assay: bioluminescence imaging of MDA-MB231 cells expressing the luciferase
Format: cell-based
Settings: stable cells

SMILES: Oc1ccc(Cc2nc3c(Cc4ccccc4)nc(-c4ccc(O)cc4)cn3c2O)cc1 [nCTZ]
- bioluminescence imaging of MDA-MB231 cells expressing the luciferase: exhibited the brightest signal when reacted with nCTZ
